Earlier results as cited in PMC4324444 (ACS Chemical Biology, 2014).

Target: XIAP
Conditions: read-out: binding affinity to XIAP (Ki)

- Ki: > 30 µM
Structure (SMILES): CN[C@@H](C)C(=O)N[C@H](C(=O)N1CC[C@H](C)[C@H]1C(=O)Nc1ccccc1-c1ncccn1)C1CCCCC1 [CS3]
